Measured values published in patent publication US20200038306A1, “[…] DERIVATIVES AS SELF-TANNING SUBSTANCES” (Merck Patent GmbH, priority 2016, published 2020).

Columns and labels:
[1] = system: 3D melanized reconstructed human epidermis (RHEs-MEL); test: Tanning properties in vitro on reconstructed epidermis; type: cell-based; details: systemic treatment in culture medium for 10 days, positive control IBMX 100 μM
Procedure: Evaluation of the Tanning Properties In Vitro on Reconstructed Epidermis
In this study, the tanning properties of compound Id are investigated in vitro on 3D melanized reconstructed human epidermis (RHEs-MEL). The compound IBMX (3-isobutyl-1-methylxanthine) 100 μM is employed as positive control. Compound Id is employed 20 μM and […]. Untreated reconstructed skin is used as negative control. The in vitro skin is treated systemically with the compounds to be investigated in a culture medium for 10 days and then analysed.

[2] = system: Normal Human Epidermal Keratinocytes (NHEK) and Normal Human Epidermal Melanocytes, Lightly Pigmented (NHEM-LP) co-culture; test: Synthesis of melanin in NHEK/NHEM-LP co-culture; type: cell-based; details: 240 hours (10 days) incubation, melanin extracted with 0.5 N NaOH, OD 405 nm, triple determination
Procedure: Evaluation of the Synthesis of Melanin in a Cell Culture Model Containing Two Cell Types (Co-Culture), Firstly Normal Human Epidermal Keratinocytes (NHEK) and Secondly Normal Human Epidermal Melanocytes, Lightly Pigmented (NHEM-LP)
The two cell types NHEK and NHEM-LP (NHEK:NHEM-LP) are employed in a ratio of 2:1.
The culture medium consists of the media keratinocyte-SFM (2 parts by volume) and medium M254 (1 part by volume).
Keratinocyte-SFM contains 0.25 ng/ml of epidermal growth factor (EGF), 25 μg/ml of pituitary extract (PE) and 25 μg/ml of gentamycin and was purchased from Thermo Fisher Scientific.
M254 contains PMA-free HMGS-2, 5 μg/ml of insulin, 50 U/ml of penicillin, 50 μg/ml of streptomycin and 25 μg/ml of gentamycin and was purchased from Thermo Fisher Scientific.
IBMX denotes the compound 3-isobutyl-1-methylxanthine.
Cell Culture and Treatment
NHEK and NHEM-LP were incubated in the culture medium in microtitre plates (24-well plates) for 24 hours (37° C., 5% CO2). The culture medium was removed and replaced by an assay medium which contained the culture medium and compounds Ib and Id to be tested or alternatively no test substance, the reference L-tyrosine (1 mM), 200 μM of IBMX or the solvent control 0.1% of THF, 0.15% of THF, 0.1% of DMSO, 0.15% of DMSO, 0.17% of DMSO. Compound Ib was added as solution (0.15% in DMSO). Compound Id was added as solution (0.15% in THF). After replacement of the assay medium, the cells were incubated again for 240 hours (10 days). On days 3 and 7, assay medium was again added. All experimental investigations were carried out using a triple determination. After the end of the incubation, the melanin was extracted by cell lysis with 0.5 N NaOH. The optical density (OD) of each sample was measured at 405 nm. The melanin quantity was calculated from melanin standards (standard curve 0.39 to 100 μg/ml of melanin).

Row | Compound | tanning properties (reduction of the ITA value and visual colour difference) compared with IBMX ([1]; 20 μM) | tanning properties (reduction of the ITA value and visual colour difference) compared with IBMX [1] | stimulation of melanin synthesis ([2]; 20 μM) [%] | stimulation of melanin synthesis ([2]; 45 μM) [%]
1 | CCCCN1C(=O)NC(=O)C(Cc2ccccc2)C1=O (centres unmarked) [Compound Id, 5-benzyl-1-butylpyrimidine-2,4,6-trione] | comparably good properties as IBMX at 100 μM | comparably good properties as IBMX at 100 μM | 17 | 25
2 | COc1ccc(CC2C(=O)NC(=O)NC2=O)cc1 [Compound Ib, 5-(4-methoxybenzyl)pyrimidine-2,4,6-trione] | – | – | – | 20
